Reference: patent US20190025313A1, “TREATMENT OF TUMORS INCORPORATING MUTANT ISOCITRATE DEHYDROGENASE” (Agios Pharmaceuticals, Inc., priority 2015, published 2019)

Tests used:
Format in all cases: cell-based
TF1 cells [1] = assay: Metabolic activity (ATP fold-change) in methotrexate treated TF1 cells; details: FIG. 3
Description: Metabolic activity was rescued in mIDH1 and mIDH2 TF1 cells with 3-day folinic acid supplement.

mIDH1 TF1 cells = assay: Metabolic activity (ATP fold-change) and rescue in mIDH1 TF1 cells; details: for rescue of brequinar-induced drop in metabolic activity / drop in metabolic activity: Brequinar 2 μM; for drop in metabolic activity: ATP fold-change day 3 over day 0
Description: (§1) TF1-pLVX (wildtype) cells were pLVX plated at 20 k/ml, 90 μl/well while TF1/R132H27 (mIDH1) and TF1/R140Q11 (mIDH2) cells were plated at 80 k/ml, 90 μl/well in RPMI, 10% FBS, G418 and GM-CSF. Test compound was added on day 0 and CellTiter-Glo, assay (Promega) was performed on day 3/4 and 7. Medium was not changed during 7-day culture.
(§2) Data was expressed as ATP fold-change: day 3 over day 0.

mIDH2 TF1 cells = assay: Metabolic activity (ATP fold-change) and rescue in mIDH2 TF1 cells; details: for rescue of brequinar-induced drop in metabolic activity / drop in metabolic activity: Brequinar 2 μM; for drop in metabolic activity: ATP fold-change day 3 over day 0
Description: as §1, §2

[2] = tested on: TF1/R132H27 (mIDH1) cells; assay: Proliferation assay (CellTiter-Glo) of mutant IDH1 TF1 cells; details: Homo sapiens, TF-1, mutant IDH1 (R132H) TF1 cells, read-out: IC50, inhibition of proliferation
Description: (§3) Proliferation Assay of Wild Type and Mutant IDH Cell Lines
as §1

[3] = tested on: TF1/R140Q11 (mIDH2) cells; assay: Proliferation assay (CellTiter-Glo) of mutant IDH2 TF1 cells; details: Homo sapiens, TF-1, mutant IDH2 (R140Q) TF1 cells, read-out: IC50, inhibition of proliferation
Description: as §3, §1

TF1 cells [4] = assay: Proliferation assay, cell line not specified (IC90 at day 7); details: Homo sapiens, TF-1, 168 h, cell line not stated
Description: as §1, §2

[5] = 3-day folinic acid supplement, methotrexate treated, FIG. 3
[6] = uridine 8 μM, 3-day supplement, FIG. 2A

SMILES: CN(Cc1cnc2nc(N)nc(N)c2n1)c1ccc(C(=O)N[C@@H](CCC(=O)O)C(=O)O)cc1 [methotrexate]
- metabolic activity expressed as ATP fold-change (day 3 over day 0) (TF1 cells [1]): drop in metabolic activity

SMILES: Nc1nc(=O)c2c([nH]1)NCC(CNc1ccc(C(=O)N[C@@H](CCC(=O)O)C(=O)O)cc1)N2C=O (mixture of isomers) [folinic acid]
- rescue of methotrexate-induced drop in metabolic activity (mIDH1 TF1 cells; [5]): rescued
- rescue of methotrexate-induced drop in metabolic activity (mIDH2 TF1 cells; [5]): rescued

SMILES: O=c1ccn([C@@H]2O[C@H](CO)[C@@H](O)[C@H]2O)c(=O)[nH]1 [uridine]
- rescue of brequinar-induced drop in metabolic activity (mIDH1 TF1 cells; [6]): rescued
- rescue of brequinar-induced drop in metabolic activity (mIDH1 TF1 cells; uridine 1,000 μM, FIG. 2B): rescued
- rescue of brequinar-induced drop in metabolic activity (mIDH2 TF1 cells; [6]): rescued
- rescue of brequinar-induced drop in metabolic activity (mIDH2 TF1 cells; uridine 1,000 μM, FIG. 2B): rescued

SMILES: Cc1c(-c2ccc(-c3ccccc3F)cc2)nc2ccc(F)cc2c1C(=O)O [Brequinar, brequinar]
- IC50 [2]: 1.3 µM
- IC50 [3]: 1.6 µM
- IC90 (TF1 cells [4]): ~2 µM
- drop in metabolic activity (mIDH1 TF1 cells; FIG. 2A): 73%
- drop in metabolic activity (mIDH1 TF1 cells; FIG. 2B): 77%
- drop in metabolic activity (mIDH2 TF1 cells; FIG. 2A): 52%
- drop in metabolic activity (mIDH2 TF1 cells; FIG. 2B): 47%
